# Experimental data published in US7678829B2, “Oculoselective drugs and prodrugs” (QLT Inc., priority 2004, dated 2010).
# Experiments:
# [1] = Ocular bioavailability, aqueous humor analyzed by HPLC; type: in vivo; conditions: rabbit aqueous humor
# Procedure: Three rabbits were used per time point. The 50 μl test substance was administered in a single instillation using a micropipette into the conjunctival sac of the right and the left eyes. The rabbits were anesthetized with an intramuscular injection of Imalgéne® 1000 (ketamine 32 mg/kg), and Rompun® (xylasine 7.5 mg/kg). They were then desanguinated by cardiac puncture and thereafter euthanized by an overdose of pentobarbital. Immediately after death, the eyes were micro-dissected to obtain: cornea (C), aqueous humor (AH), and iris-ciliary body (ICB). All samples were stored at −80° C. Only aqueous humor (AH) samples were analyzed by HPLC.
# albino rabbits = assay: Corneal anesthesia measurements (Cochet's esthesiometer); type: in vivo, rabbit
# Procedure: The effect of a 50 μl single instillation of 0.3%, 0.5%, 1.0% and 2.0% solution of compound 7 on corneal anesthesia, after a single instillation in the conjunctival sac of the right eyes of albino rabbits (N=5) was measured using a Cochet's esthesiometer (nylon thread: 0.12 mm diameter, 10 mm long). Corneal anesthesia was evaluated by the number of comeal mechanical stimuli necessary to induce a blinking reflex. The effect of drug solutions was compared with sterile 0.9% NaCl treated animals (control group) and 0.4% oxybuprocaine (Novesine®).
# [2] = Accelerated stability test of 0.25% solutions in acetate buffer, HPLC; type: physicochemical; conditions: for projected shelf-life: conventional eye drop formulation, at room temperature
# Procedure: An accelerated stability test was conducted on 0.25% solutions of compounds 6, 7, and 8 (Example 2) at 40° C. for 1, 2, 3, 4, 8 and 12 weeks and monitored for the disappearance of the prodrugs and appearance of the parent compound by HPLC analysis. The parent compound (referred to hereinafter as compound 4) has the formula: […]
# The respective compounds were dissolved in an acetate buffer, pH 3.5 (0.018% sodium acetate, 0.135% acetic acid, 0.9% sodium chloride in water for injection) to obtain 0.25% solution. The stability of the compounds was determined at 40° C. for 1, 2, 3, 4, 8, and 12 weeks. The concentration of the parent compound as well as the concentrations of the prodrug compounds 6, 7, and 8 at each time point by HPLC method.
Structure (SMILES),level of the prodrug itself in aqueous humor [1],corneal sensitivity (local anesthetic activity) (albino rabbits; at 1%),projected shelf-life [2],"corneal sensitivity (local anesthetic activity) (albino rabbits; 50 μl single instillation of 0.3%, 0.5%, 1.0% and 2.0% solution, compared to 0.4% oxybuprocaine)","relative stability (FIG. 1, percent degradation) ([2]; 0.25% solution, 40° C., pH 3.5, compared among compounds 6, 7 and 8)"
"Cc1cc(O)c(O)cc1C(=O)OCC(CNC(C)(C)CNC(=O)C1CCOC1)OC(=O)C(C)(C)C (centres unmarked) [Compound 6, reference compound]",below the detection limit,complete comeal sensitivity loss,2.6 months,,
"Cc1cc(O)c(O)cc1C(=O)OCC(CNC(C)(C)CNC(=O)C1CCOC1)OC(=O)C1(C)CC1 (centres unmarked) [Compound 7, 4,5-Dihydroxy-2-methyl-benzoic acid 3-{1,1-dimethyl-2-[(tetrahydro-furan-3-carbonyl)-amino]-ethylamino}-2-(1-methyl-cyclopropanecarbonyloxy)-propyl ester]",also present in aqueous humor,,at least 18 months,no comeal sensitivity,most stable
"Cc1cc(O)c(O)cc1C(=O)OCC(CNC(C)(C)CNC(=O)C1CCOC1)OC(=O)C1CC1(C)C (centres unmarked) [Compound 8, 4,5-dihydroxy-2-methyl-benzoic acid 2-(2,2-dimethyl-cyclopropanecarbonyloxy)-3-{1,1-dimethyl-2-[(tetrahydro-furan-3-carbonyl)-amino]-ethylamino}-propyl ester]",,,7.9 months,,
